Bridge positions count the residues as written; N and C are the ends. Square brackets hold non-standard residues; d marks the D form. Peptide text beside a SMILES is read from it. Hyp = O=C(O)[C@@H]1C[C@@H](O)CN1; Cit = NC(=O)NCCC[C@H](N)C(=O)O
Experiments:
[1] = Physical stability of peptide analogues (Thioflavin T fibrillation); type: physicochemical; conditions: maximum ThT signal normalized between hAMY maximum and buffer background; 40° C., shaking, four days; pH 7 per table title
Procedure, shortened: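 Peptides in 50 mM sodium acetate pH 4 or 50 mM sodium phosphate pH 7 were preincubated 1 h, mixed with 4 μM ThT, held at 40° C with 700 rpm shaking before each read. Fluorescence (ex 450/em 480 nm) every 10 min for four days; LOESS-smoothed maximum signal normalized in percent between hAMY and buffer.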

hAMY3 receptor = target: T1, hAMY3 receptor (Homo sapiens, UniProt O60896+P30988); assay: cAMP assay for in vitro receptor activation, hAMY3-R; type: cell-based; conditions: cAMP assay, hAMY3 receptor; read-out: hAMY3R EC50
T1 sequence (P30988 25-474): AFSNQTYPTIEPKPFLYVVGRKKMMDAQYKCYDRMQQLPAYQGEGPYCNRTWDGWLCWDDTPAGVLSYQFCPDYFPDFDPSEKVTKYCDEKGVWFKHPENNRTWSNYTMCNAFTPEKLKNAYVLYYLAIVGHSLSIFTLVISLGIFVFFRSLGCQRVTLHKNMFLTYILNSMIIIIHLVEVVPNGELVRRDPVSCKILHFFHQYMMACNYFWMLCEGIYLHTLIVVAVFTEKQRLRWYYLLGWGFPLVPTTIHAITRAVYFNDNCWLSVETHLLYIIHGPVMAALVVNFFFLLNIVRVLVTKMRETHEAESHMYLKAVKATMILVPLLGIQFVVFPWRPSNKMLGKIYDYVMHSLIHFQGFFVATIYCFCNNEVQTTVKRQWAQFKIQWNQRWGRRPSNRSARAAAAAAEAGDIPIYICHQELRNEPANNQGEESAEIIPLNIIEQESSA
T1 sequence (O60896 24-148 partner): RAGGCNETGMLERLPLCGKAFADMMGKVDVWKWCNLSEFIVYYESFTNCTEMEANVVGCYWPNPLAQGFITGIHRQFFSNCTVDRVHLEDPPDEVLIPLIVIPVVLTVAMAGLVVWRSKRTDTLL
Procedure, shortened: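 Monoclonal cell line stably overexpressing human AMY3 receptor, 2000 cells/well in DPBS with 0.05% casein and 0.5 mM IBMX. Stimulated 30 min at room temperature with graded compound doses, human amylin as positive control. cAMP accumulation read by TR-FRET after one hour.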

Max ThT signal (%) [1] [%]	EC50 (hAMY3 receptor) [nM]	Structure (SMILES)
26.800	0.019	CC[C@H](C)[C@H](NC(=O)[C@H](CCCCN)NC(=O)[C@@H](NC(=O)[C@H](CCCNC(=N)N)NC(=O)[C@@H]1CCCN1C(=O)[C@H](C)NC(=O)[C@@H](NC(=O)[C@H](CC(N)=O)NC(=O)[C@H](CC(=O)O)NC(=O)[C@H](CCCCN)NC(=O)[C@H](CC(=O)O)NC(=O)[C@H](CCCCN)NC(=O)[C@H](CC(=O)O)NC(=O)[C@@H](NC(=O)[C@H](Cc1ccccc1)NC(=O)[C@H](CCC(N)=O)NC(=O)[C@H](Cc1ccc(O)cc1)NC(=O)[C@@H](NC(=O)[C@H](CCC(N)=O)NC(=O)[C@H](Cc1c[nH]cn1)NC(=O)[C@H](C)NC(=O)[C@H](CC(C)C)NC(=O)[C@H](CCCNC(N)=O)NC(=O)[C@H](CCC(N)=O)NC(=O)[C@@H](NC(=O)[C@@H](NC(=O)[C@@H]1CSSC[C@H](NC(=O)CN)C(=O)N[C@@H](CCCNC(=N)N)C(=O)N[C@@H](Cc2ccccc2)C(=O)NCC(=O)N[C@@H]([C@@H](C)O)C(=O)N1)[C@@H](C)O)C(C)C)[C@@H](C)CC)[C@@H](C)O)C(C)C)[C@@H](C)O)C(=O)NCC(=O)N1CCC[C@H]1C(=O)N[C@@H](CCC(N)=O)C(=O)NCC(=O)N1C[C@H](O)C[C@H]1C(N)=O [compound 274] (H-GCRFGTCTVQ[Cit]LAHQIYQFTDKDKDNVAPRTKIGPQG[Hyp]-NH2; disulfide 2-7; N-terminus assumed)
15.300	0.047	CC[C@H](C)[C@H](NC(=O)[C@H](CCC(N)=O)NC(=O)[C@H](Cc1c[nH]cn1)NC(=O)[C@H](C)NC(=O)[C@H](CC(C)C)NC(=O)[C@H](CCCNC(=N)N)NC(=O)[C@H](CCC(N)=O)NC(=O)[C@@H](NC(=O)[C@@H](NC(=O)[C@@H]1CSSC[C@H](NC(=O)CN)C(=O)N[C@@H](CCCNC(=N)N)C(=O)N[C@@H]([C@@H](C)O)C(=O)NCC(=O)N[C@@H]([C@@H](C)O)C(=O)N1)[C@@H](C)O)C(C)C)C(=O)N[C@@H](Cc1ccc(O)cc1)C(=O)N[C@@H](CCC(N)=O)C(=O)N[C@@H](Cc1ccccc1)C(=O)N[C@H](C(=O)N[C@@H](CC(=O)O)C(=O)N[C@@H](CCCCN)C(=O)N[C@@H](CC(=O)O)C(=O)N[C@@H](CCCCN)C(=O)N[C@@H](CC(=O)O)C(=O)N[C@@H](CC(N)=O)C(=O)N[C@H](C(=O)N[C@@H](C)C(=O)N1CCC[C@H]1C(=O)N[C@@H](CCCNC(=N)N)C(=O)N[C@H](C(=O)N[C@@H](CCCCN)C(=O)N[C@H](C(=O)NCC(=O)N1CCC[C@H]1C(=O)N[C@@H](CCC(N)=O)C(=O)NCC(=O)N[C@@H](Cc1ccc(O)cc1)C(N)=O)C(C)C)[C@@H](C)O)C(C)C)[C@@H](C)O [compound 156] (H-GCRTGTCTVQRLAHQIYQFTDKDKDNVAPRTKVGPQGY-NH2; disulfide 2-7; N-terminus assumed)
30.900	0.007	CC[C@H](C)[C@H](NC(=O)[C@H](CCC(N)=O)NC(=O)[C@H](Cc1c[nH]cn1)NC(=O)[C@H](C)NC(=O)[C@H](CC(C)C)NC(=O)[C@H](CCCNC(N)=O)NC(=O)[C@H](CCC(N)=O)NC(=O)[C@@H](NC(=O)[C@@H](NC(=O)[C@@H]1CSSC[C@H](NC(=O)CN)C(=O)N[C@@H](CCCNC(=N)N)C(=O)N[C@@H](Cc2ccccc2)C(=O)NCC(=O)N[C@@H]([C@@H](C)O)C(=O)N1)[C@@H](C)O)C(C)C)C(=O)N[C@@H](Cc1ccc(O)cc1)C(=O)N[C@@H](CCC(N)=O)C(=O)N[C@@H](Cc1ccccc1)C(=O)N[C@H](C(=O)N[C@@H](CC(=O)O)C(=O)N[C@@H](CCCCN)C(=O)N[C@@H](CC(=O)O)C(=O)N[C@@H](CCCCN)C(=O)N[C@@H](CC(=O)O)C(=O)N[C@@H](CC(N)=O)C(=O)N[C@H](C(=O)N[C@@H](C)C(=O)N1CCC[C@H]1C(=O)N[C@@H](CCCNC(=N)N)C(=O)N[C@H](C(=O)N[C@@H](CC(N)=O)C(=O)N[C@H](C(=O)NCC(=O)N1CCC[C@H]1C(=O)N[C@@H](CCC(N)=O)C(=O)NCC(=O)N1C[C@H](O)C[C@H]1C(N)=O)C(C)C)[C@@H](C)O)C(C)C)[C@@H](C)O [compound 267] (H-GCRFGTCTVQ[Cit]LAHQIYQFTDKDKDNVAPRTNVGPQG[Hyp]-NH2; disulfide 2-7; N-terminus assumed)
25.800	0.04	CC[C@H](C)[C@H](NC(=O)[C@H](CC(N)=O)NC(=O)[C@H](CO)NC(=O)[C@H](CCCNC(=N)N)NC(=O)[C@@H]1CCCN1C(=O)[C@H](C)NC(=O)[C@@H](NC(=O)[C@H](CC(N)=O)NC(=O)[C@H](CC(=O)O)NC(=O)[C@H](CCCCN)NC(=O)[C@H](CC(=O)O)NC(=O)[C@H](CCCCN)NC(=O)[C@H](CC(=O)O)NC(=O)[C@@H](NC(=O)[C@H](Cc1ccccc1)NC(=O)[C@H](CCC(N)=O)NC(=O)[C@H](Cc1ccc(O)cc1)NC(=O)[C@@H](NC(=O)[C@H](CCC(N)=O)NC(=O)[C@H](Cc1c[nH]cn1)NC(=O)[C@H](C)NC(=O)[C@H](CC(C)C)NC(=O)[C@H](Cc1c[nH]c2ccccc12)NC(=O)[C@H](CCC(N)=O)NC(=O)[C@@H](NC(=O)[C@@H](NC(=O)[C@@H]1CSSC[C@H](NC(=O)CN)C(=O)N[C@@H](CCCNC(=N)N)C(=O)N[C@@H]([C@@H](C)O)C(=O)NCC(=O)N[C@@H]([C@@H](C)O)C(=O)N1)[C@@H](C)O)C(C)C)[C@@H](C)CC)[C@@H](C)O)C(C)C)C(=O)NCC(=O)N1CCC[C@H]1C(=O)N[C@@H](CC(N)=O)C(=O)NCC(=O)N1C[C@H](O)C[C@H]1C(N)=O [compound 352] (H-GCRTGTCTVQWLAHQIYQFTDKDKDNVAPRSNIGPNG[Hyp]-NH2; disulfide 2-7; N-terminus assumed)
1.350	0.006	CC(C)C[C@H](NC(=O)[C@H](CCCNC(N)=O)NC(=O)[C@H](CCC(N)=O)NC(=O)[C@@H](NC(=O)[C@@H](NC(=O)[C@@H]1CSSC[C@H](NC(=O)CN)C(=O)N[C@@H](CCCNC(=N)N)C(=O)N[C@@H](Cc2ccccc2)C(=O)NCC(=O)N[C@@H]([C@@H](C)O)C(=O)N1)[C@@H](C)O)C(C)C)C(=O)N[C@@H](C)C(=O)N[C@@H](Cc1c[nH]cn1)C(=O)N[C@@H](Cc1ccccc1)C(=O)N[C@@H](CC(C)C)C(=O)N[C@@H](Cc1ccc(O)cc1)C(=O)N[C@@H](CCC(N)=O)C(=O)N[C@@H](Cc1ccccc1)C(=O)N[C@H](C(=O)N[C@@H](CC(=O)O)C(=O)N[C@@H](CCCCN)C(=O)N[C@@H](CC(=O)O)C(=O)N[C@@H](CCCCN)C(=O)N[C@@H](CC(=O)O)C(=O)N[C@@H](CC(N)=O)C(=O)N[C@H](C(=O)N[C@@H](C)C(=O)N1CCC[C@H]1C(=O)N[C@@H](CCCNC(=N)N)C(=O)N[C@H](C(=O)N[C@@H](CC(N)=O)C(=O)N[C@H](C(=O)NCC(=O)N[C@@H](CO)C(=O)N[C@@H](CC(N)=O)C(=O)N[C@H](C(=O)N[C@@H](Cc1ccc(O)cc1)C(N)=O)[C@@H](C)O)C(C)C)[C@@H](C)O)C(C)C)[C@@H](C)O [compound 264] (H-GCRFGTCTVQ[Cit]LAHFLYQFTDKDKDNVAPRTNVGSNTY-NH2; disulfide 2-7)
18.400	0.014	CC[C@H](C)[C@H](NC(=O)[C@H](CCC(N)=O)NC(=O)[C@H](Cc1c[nH]cn1)NC(=O)[C@H](C)NC(=O)[C@H](CC(C)C)NC(=O)[C@H](Cc1c[nH]c2ccccc12)NC(=O)[C@H](CCC(N)=O)NC(=O)[C@@H](NC(=O)[C@@H](NC(=O)[C@@H]1CSSC[C@H](NC(=O)CN)C(=O)N[C@@H](CCCNC(=N)N)C(=O)N[C@@H](Cc2ccccc2)C(=O)NCC(=O)N[C@@H]([C@@H](C)O)C(=O)N1)[C@@H](C)O)C(C)C)C(=O)N[C@@H](Cc1ccc(O)cc1)C(=O)N[C@@H](CCC(N)=O)C(=O)N[C@@H](Cc1ccccc1)C(=O)N[C@H](C(=O)N[C@@H](CC(=O)O)C(=O)N[C@@H](CCCCN)C(=O)N[C@@H](CC(=O)O)C(=O)N[C@@H](CCCCN)C(=O)N[C@@H](CC(=O)O)C(=O)N[C@@H](CC(N)=O)C(=O)N[C@H](C(=O)N[C@@H](C)C(=O)N1CCC[C@H]1C(=O)N[C@@H](CCCNC(=N)N)C(=O)N[C@H](C(=O)N[C@@H](CCCCN)C(=O)N[C@H](C(=O)NCC(=O)N1CCC[C@H]1C(=O)N[C@@H](CCC(N)=O)C(=O)NCC(=O)N1C[C@H](O)C[C@H]1C(N)=O)C(C)C)[C@@H](C)O)C(C)C)[C@@H](C)O [compound 322] (H-GCRFGTCTVQWLAHQIYQFTDKDKDNVAPRTKVGPQG[Hyp]-NH2; disulfide 2-7; N-terminus assumed)

Source: US12139520B2 (priority 2020, dated 2024)
